Laboratory results from patent publication US20260008758A1, “LINEAR DIPEPTIDYL PEPTIDASE 1 INHIBITORS AND USES THEREOF” (Insmed Incorporated, priority 2024, published 2026).

Columns and labels:
human DPP1 enzyme = human DPP1 enzyme (Homo sapiens (Human), UniProt P53634); assay: Human DPP1 enzyme single-point percent inhibition testing (HL-60 lysate, H-Gly-Arg-AMC substrate); type: biochemical; conditions: read-out: human DPP1 enzyme % inhibition @ 10 nM, 10 nM compound, 400 μM H-Gly-Arg-AMC, 10 min pre-incubation at 37° C.
Description: A crude lysate of HL-60 cells (ATCC; Manassas, VA) was used as a source of human DPP1 enzyme in the assay. Lysate was prepared in 1% Triton X-100 in PBS at a concentration of 20,000 live cells per […] of lysis buffer and was centrifuged at 16,000 rcf for 10 minutes at 4° C., after which supernatant was collected and flash-frozen in liquid nitrogen. Test articles were applied to human DPP1 enzyme in Assay Buffer (25 mM MES pH 6.0, 50 mM NaCl, 5 mM DTT) in a total reaction volume of 125 μL. 25 μL of compound diluted to 50 nM in Assay Buffer plus 5% DMSO was first added to 50 μL of HL-60 lysate diluted to contain a DPP1 enzyme concentration of roughly 1 ng/μL and allowed to pre-incubate for 10 minutes at 37° C. after which 50 μL of 1000 μM H-Gly-Arg-AMC substrate (Bachem; St. Torrance, CA) was added, giving final compound concentration of 10 nM, a final substrate concentration of 400 μM and a final DMSO concentration of 1%. Substrate cleavage was measured for 90 minutes at 37° C., with fluorescence at Excitation/Emission 350/450 nm measured every 5 minutes. DPP1 concentration was interpolated based on its activity relative to a standard curve of activated human recombinant DPP1 enzyme. Percent inhibition at 10 nM was calculated for each test article based on remaining DPP1 activity compared to enzyme activity in wells that received only vehicle control.

DPP1 in HL-60 cells = DPP1 in HL-60 cells (Homo sapiens (Human), UniProt P53634); assay: DPP1 cell single-point percent inhibition testing (HL-60 cells, H-Gly-Phe-AFC substrate); type: cell-based; conditions: read-out: DPP1 cell % inhibition @ 5 nM, 5 nM compound, 100 μM H-Gly-Phe-AFC, 60 min pre-incubation at 37° C.
Description: HL-60 cells (ATCC; Manassas, VA) were maintained in RPMI-1640 supplemented with 20% heat-inactivated FBS and 1× Antibiotic Antimycotic (Cytiva; Marlborough, MA). Media was changed every three to four days and cells were not allowed to exceed 1×10^6 cells per mL. Prior to assay, cells were collected by centrifugation at 500 rcf for 3 minutes, resuspended in RPMI (with no additional supplements) and counted. Cells were diluted in RPMI to a concentration of 5×10^5 live cells per mL and transferred to black 96-well plates for assay, 60 μL per well. Test articles were diluted to 25 nM in RPMI plus 0.5% DMSO, and 20 μL was added to each assay well. Compound was allowed to pre-incubate with cells with gentle shaking at 100 rpm for 60 minutes at 37° C. in a cell culture incubator maintained at 5% CO2, after which 20 μL of 500 μM H-Gly-Phe-AFC cell-permeable substrate (MP Biomedicals; Solon, OH) in RPMI was added to each well, giving final compound concentration of 5 nM, a final substrate concentration of 100 μM and a final DMSO concentration of 0.1%. Plates were returned to the incubator with shaking at 100 rpm for 30 minutes, after which fluorescence was measured at Excitation/Emission 400/505 nm. Percent Inhibition was calculated from RFU values by first subtracting background values (wells in which RPMI was substituted for cells) from each well, and then subtracting background-subtracted RFU derived from wells that received a final concentration of 10 μM brensocatib. This value represents the non-specific substrate cleavage from the HL-60 cells, and the remaining RFU should theoretically be solely the contribution of DPP1 enzyme activity. The final percent inhibition value was calculated for each test article based on remaining RFU compared to RFU from wells that received only vehicle control.

Sequence of DPP1 in HL-60 cells (P53634 25-134): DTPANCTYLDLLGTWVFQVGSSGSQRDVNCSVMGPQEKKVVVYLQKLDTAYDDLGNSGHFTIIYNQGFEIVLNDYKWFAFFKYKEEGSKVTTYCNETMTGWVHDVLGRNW
Sequence of DPP1 in HL-60 cells (P53634 231-394): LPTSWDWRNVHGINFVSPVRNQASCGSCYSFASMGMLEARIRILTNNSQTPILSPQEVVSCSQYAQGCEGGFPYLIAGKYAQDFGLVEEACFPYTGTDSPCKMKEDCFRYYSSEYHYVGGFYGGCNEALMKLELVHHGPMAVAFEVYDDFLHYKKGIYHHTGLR
Sequence of DPP1 in HL-60 cells (P53634 395-463): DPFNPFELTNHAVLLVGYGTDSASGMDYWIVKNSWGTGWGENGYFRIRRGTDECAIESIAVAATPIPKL
Sequence of human DPP1 enzyme (P53634 25-134): as the sequence (P53634 25-134) above
Sequence of human DPP1 enzyme (P53634 231-394): as the sequence (P53634 231-394) above
Sequence of human DPP1 enzyme (P53634 395-463): as the sequence (P53634 395-463) above

| SMILES | inhibition at 0.01 µM (human DPP1 enzyme) [%] | inhibition at 0.005 µM (DPP1 in HL-60 cells) [%] |
| --- | --- | --- |
| CO[C@@H](CN(C)C)C(=O)N[C@H](C#N)Cc1ccc(-c2ccc(CN3CCN(C)CC3)cc2)cc1F [Compound 323] | ≤ 40 | 76.5 to 93.9 |
| CO[C@@H](CN(C)C)C(=O)N[C@H](C#N)Cc1ccc(-c2ccc3oc(=O)n(C)c3c2)cc1F [Compound 324] | 40 to 66.7 | 76.5 to 93.9 |
| CO[C@@H](CN(C)C)C(=O)N[C@H](C#N)Cc1ccc(-c2ccc3c(n2)CCCN3)cc1F [Compound 325] | ≤ 40 | ≤ 76.5 |
| COCCN(C)CCn1c(=O)oc2ccc(-c3ccc(C[C@@H](C#N)NC(=O)[C@H](CN(C)C)OC)c(F)c3)cc21 [Compound 326] | ≥ 66.7 | ≤ 76.5 |
| CO[C@@H](CN(C)C)C(=O)N[C@H](C#N)Cc1ccc(-c2ccc3cnn(C)c3c2)cc1 [Compound 328] | ≤ 40 | ≤ 76.5 |
| CO[C@@H](CN(C)C)C(=O)N[C@H](C#N)Cc1ccc(-c2ccc3nnn(C)c3c2)cc1 [Compound 329] | ≤ 40 | ≤ 76.5 |
| CO[C@@H](CN(C)C)C(=O)N[C@H](C#N)Cc1ccc(-c2cnc3c(n2)CCCC3)cc1 [Compound 330] | ≤ 40 | ≤ 76.5 |
| CO[C@@H](CN(C)C)C(=O)N[C@H](C#N)Cc1ccc(-c2ccc(S(=O)(=O)N3CCC3)cc2)cc1 [Compound 331] | ≤ 40 | ≤ 76.5 |
| CO[C@@H](CN(C)C)C(=O)N[C@H](C#N)Cc1ccc(-c2ccc3cnn(C)c3c2)cc1F [Compound 332] | ≤ 40 | ≤ 76.5 |
| CO[C@@H](CN(C)C)C(=O)N[C@H](C#N)Cc1ccc(-c2ccc3nnn(C)c3c2)cc1F [Compound 333] | 40 to 66.7 | 76.5 to 93.9 |
| CO[C@@H](CN(C)C)C(=O)N[C@H](C#N)Cc1ccc(-c2cnc3c(n2)CCCC3)cc1F [Compound 334] | ≤ 40 | ≤ 76.5 |
| CO[C@@H](CN(C)C)C(=O)N[C@H](C#N)Cc1ccc(-c2ccc(S(=O)(=O)N3CCC3)cc2)cc1F [Compound 335] | ≤ 40 | ≤ 76.5 |
| CO[C@@H](CN(C)C)C(=O)N[C@H](C#N)Cc1cc2c(cc1F)-c1ccc(F)cc1CO2 [Compound 336] | ≤ 40 | ≤ 76.5 |
| CN(C)C[C@H](O)C(=O)N[C@H](C#N)Cc1cc2c(cc1F)-c1ccc(C#N)cc1CO2 [Compound 338] | ≤ 40 | ≤ 76.5 |
| CN(C)C[C@H](O)C(=O)NC(C#N)Cc1cc2c(cc1F)-c1cc3c(cc1CO2)oc(=O)n3C (stereo partly shown) [Compound 339] | ≤ 40 | ≤ 76.5 |
| CN(C)C[C@H](O)C(=O)NC(C#N)Cc1cc2c(cc1F)-c1ccc3oc(=O)n(C)c3c1CO2 (stereo partly shown) [Compound 341] | ≤ 40 | ≤ 76.5 |
| CN(C)C[C@H](O)C(=O)N[C@H](C#N)Cc1ccc(-c2ccc3c(c2)C2(CC3)CCN(C)CC2)cc1 [Compound 342] | 40 to 66.7 | ≤ 76.5 |
| CN(C)C[C@H](O)C(=O)N[C@H](C#N)Cc1ccc(-c2ccc3c(c2)C2(CCCN(C)C2)C(=O)N3C)cc1 (stereo partly shown) [Compound 343] | ≤ 40 | ≤ 76.5 |
| CN(C)CCn1c(=O)oc2ccc(-c3ccc(C[C@@H](C#N)NC(=O)[C@@H](O)CN(C)C)cc3)cc21 [Compound 344] | 40 to 66.7 | ≤ 76.5 |
| Cc1cn2cc(-c3ccc(C[C@@H](C#N)NC(=O)[C@@H](O)CN(C)C)cc3)cc2c(C)n1 [Compound 345] | ≤ 40 | ≤ 76.5 |
| CN(C)C[C@H](O)C(=O)N[C@H](C#N)Cc1ccc(-c2ccc3c(c2)C2(CN(C)C2)OC3=O)cc1 [Compound 346] | 40 to 66.7 | ≤ 76.5 |

| SMILES | inhibition at 0.01 µM (human DPP1 enzyme) [%] | inhibition at 0.005 µM (DPP1 in HL-60 cells) [%] |
| --- | --- | --- |
| CCN1C(=O)Cc2ccc(-c3ccc(C[C@@H](C#N)NC(=O)[C@@H](O)CN(C)C)cc3)cc21 [Compound 347] | ≤ 40 | ≤ 76.5 |
| CN(C)C[C@H](O)C(=O)N[C@H](C#N)Cc1ccc(-c2ccc3c(c2)C2(CCN(C)C2)OC3=O)cc1 (stereo partly shown) [Compound 348] | 40 to 66.7 | ≤ 76.5 |
| CN(C)C[C@H](O)C(=O)N[C@H](C#N)Cc1ccc(-c2ccc3cnn(C4CCN(C)CC4)c3c2)cc1 [Compound 349] | 40 to 66.7 | ≤ 76.5 |
| CN(C)C[C@H](O)C(=O)N[C@H](C#N)Cc1ccc(-c2ccc3c(c2)C2(CCN(C4COC4)CC2)OC3)cc1 [Compound 350] | ≤ 40 | ≤ 76.5 |
| CN(C)C[C@H](O)C(=O)N[C@H](C#N)Cc1ccc(-c2ccc3oc(=O)n(CCN4CCOCC4)c3c2)cc1 [Compound 351] | ≤ 40 | ≤ 76.5 |
| CN(C)C[C@H](O)C(=O)N[C@H](C#N)Cc1ccc(-c2ccc(CN3CCN(C)CC3)cc2)cc1 [Compound 352] | ≤ 40 | ≤ 76.5 |
| CN(C)C[C@H](O)C(=O)N[C@H](C#N)Cc1ccc(-c2ccc3oc(=O)n(C)c3c2)cc1 [Compound 353] | 40 to 66.7 | 76.5 to 93.9 |
| CN(C)C[C@H](O)C(=O)N[C@H](C#N)Cc1ccc(-c2ccc3c(n2)CCCN3)cc1 [Compound 354] | ≤ 40 | ≤ 76.5 |
| CN(C)C[C@H](O)C(=O)N[C@H](C#N)Cc1ccc(-c2ccc3c(c2)C2(CC3)CCN(C)CC2)cc1F [Compound 355] | ≥ 66.7 | ≤ 76.5 |
| CN(C)C[C@H](O)C(=O)N[C@H](C#N)Cc1ccc(-c2ccc3c(c2)C2(CCCN(C)C2)C(=O)N3C)cc1F (stereo partly shown) [Compound 356] | 40 to 66.7 | 76.5 to 93.9 |
| CN(C)CCn1c(=O)oc2ccc(-c3ccc(C[C@@H](C#N)NC(=O)[C@@H](O)CN(C)C)c(F)c3)cc21 [Compound 357] | ≥ 66.7 | ≤ 76.5 |
| Cc1cn2cc(-c3ccc(C[C@@H](C#N)NC(=O)[C@@H](O)CN(C)C)c(F)c3)cc2c(C)n1 [Compound 358] | ≤ 40 | ≤ 76.5 |
| CN(C)C[C@H](O)C(=O)N[C@H](C#N)Cc1ccc(-c2ccc3c(c2)C2(CN(C)C2)OC3=O)cc1F [Compound 359] | 40 to 66.7 | ≤ 76.5 |
| CCN1C(=O)Cc2ccc(-c3ccc(C[C@@H](C#N)NC(=O)[C@@H](O)CN(C)C)c(F)c3)cc21 [Compound 360] | 40 to 66.7 | 76.5 to 93.9 |
| CN(C)C[C@H](O)C(=O)N[C@H](C#N)Cc1ccc(-c2ccc3c(c2)C2(CCN(C)C2)OC3=O)cc1F (stereo partly shown) [Compound 361] | 40 to 66.7 | ≤ 76.5 |
| CN(C)C[C@H](O)C(=O)N[C@H](C#N)Cc1ccc(-c2ccc3cnn(C4CCN(C)CC4)c3c2)cc1F [Compound 362] | ≥ 66.7 | ≤ 76.5 |
| CN(C)C[C@H](O)C(=O)N[C@H](C#N)Cc1ccc(-c2ccc3c(c2)C2(CCN(C4COC4)CC2)OC3)cc1F [Compound 363] | 40 to 66.7 | ≤ 76.5 |
| CN(C)C[C@H](O)C(=O)N[C@H](C#N)Cc1ccc(-c2ccc3oc(=O)n(CCN4CCOCC4)c3c2)cc1F [Compound 364] | 40 to 66.7 | ≤ 76.5 |
| CN(C)C[C@H](O)C(=O)N[C@H](C#N)Cc1ccc(-c2ccc(CN3CCN(C)CC3)cc2)cc1F [Compound 365] | ≤ 40 | ≤ 76.5 |
| CN(C)C[C@H](O)C(=O)N[C@H](C#N)Cc1ccc(-c2ccc3oc(=O)n(C)c3c2)cc1F [Compound 366] | 40 to 66.7 | 76.5 to 93.9 |
